Data reported in patent US5843941A, “Ras farnesyl transferase inhibitors” (Genentech, Inc., priority 1994, dated 1998).
Read-outs that look alike come from different tables or passages of the source.

Target: CAAX farnesyltransferase (Rattus norvegicus, UniProt Q02293+Q04631)
Assay: In vitro inhibition of CAAX farnesyltransferase
Type: biochemical
Parameters: purified to homogeneity from rat brain homogenates; from tissue; host or cells: rat brain; alternatively recombinant enzyme from a baculovirus expression system
Conditions: Table D
Experimental: All compounds were tested for in vitro inhibition of CAAX protein farnesyltransferase. […] Alternatively, recombinant CAAX protein farnesyltransferase was also used in this assay. […] Seventy-two hrs after infection, the cells were harvested and disrupted and the enzyme isolated by chromatography on Q-Sepharose.
After incubation for 30 min at 37° C., the amount of [3H]famesyl group transferred to p21H-ras was measured by precipitation with SDS/trichloroacetic acid, filtration onto nitrocellulose, and scintillation counting.
Structures of the compounds tested are reproduced below. Compound numbers also refer to example numbers above.

[1] = diastereomer A, read-out: EC50 (μM) "A"
[2] = diastereomer B, read-out: EC50 (μM) "B"

Chain of CAAX farnesyltransferase (Q02293 whole entry, one chain of several): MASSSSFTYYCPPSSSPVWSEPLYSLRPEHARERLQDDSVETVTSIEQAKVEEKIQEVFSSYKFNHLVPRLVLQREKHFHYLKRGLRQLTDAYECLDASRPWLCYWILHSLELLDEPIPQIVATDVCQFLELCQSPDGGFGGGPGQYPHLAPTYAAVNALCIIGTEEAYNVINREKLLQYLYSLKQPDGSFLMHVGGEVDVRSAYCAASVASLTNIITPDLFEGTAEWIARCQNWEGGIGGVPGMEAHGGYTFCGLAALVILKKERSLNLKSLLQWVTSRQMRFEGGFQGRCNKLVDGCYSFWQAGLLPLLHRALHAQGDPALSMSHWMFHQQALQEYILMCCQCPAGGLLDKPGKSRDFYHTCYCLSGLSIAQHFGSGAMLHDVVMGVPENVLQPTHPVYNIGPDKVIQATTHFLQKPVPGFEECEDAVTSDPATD

SMILES	EC50 [1]	EC50 [2]	EC50 (EC50 (μM) "A", diastereomer A)	EC50 (EC50 (μM) "B", diastereomer B)
CSCC[C@H](NC(=O)CN1C(=O)C(N(C)C(=O)[C@@H](N)CS)N=C(c2ccccc2)c2ccccc21)C(N)=O (stereo partly drawn) [compound 33, N-[[3-[(2-amino-3-mercapto-1-oxopropyl)methylamino]-2,3-dihydro-2-oxo-5phenyl-1H-1,4-benzodiazepin-1-yl]acetyl]-L-methionine amide]	2.2 µM	0.019 µM	–	–
C[C@H](NC(=O)CN1C(=O)C(N(C)C(=O)[C@@H](N)CS)N=C(c2ccccc2)c2ccccc21)C(=O)O (stereo partly drawn) [compound 35, N-[[3-[(2-amino-3-mercapto-1-oxopropyl)methylamino]-2,3dihydro-2-oxo-5-phenyl-1H-1,4-benzodiazepin-1-yl]acetyl]-L-alanine]	> 10 µM	0.022 µM	–	–
CN(C(=O)[C@@H](N)CS)C1N=C(c2ccccc2)c2ccccc2N(CC(=O)N2CCC[C@H]2C(=O)O)C1=O (stereo partly drawn) [compound 36, N-[[3-[(2-amino-3-mercapto-1-oxopropyl)methylamino]-2,3-dihydro-2-oxo-5-phenyl-1H-1,4-benzodiazepin-1-yl]acetyl]-L-proline]	> 10 µM	0.048 µM	–	–
CCOC(=O)[C@H](CCSC)NC(=O)CN1C(=O)C(N(C)C(=O)[C@@H](N)CS)N=C(c2ccccc2)c2ccccc21 (stereo partly drawn) [compound 39]	8 µM	0.11 µM	–	–
CSCC[C@H](NC(=O)CN1C(=O)C(N(C)C(=O)[C@@H](N)CS)N=C(c2ccccc2)c2ccccc21)C(=O)OC1CCCCC1 (stereo partly drawn) [compound 41]	4.2 µM	0.074 µM	–	–
CCN[C@@H](CS)C(=O)N(C)C1N=C(c2ccccc2)c2ccccc2N(CC(=O)N[C@@H](CCSC)C(=O)O)C1=O (stereo partly drawn) [compound 42, N-[[3-[(2-ethylamino-3-mercapto-1-oxopropyl)methylamino]-2,3-dihydro-2-oxo-5-phenyl-1H-1,4-benzodiazepin-1-yl]acetyl]-L-methionine]	0.58 µM	0.018 µM	–	–
CN(C(=O)[C@@H](N)CS)C1N=C(c2ccccc2)c2ccccc2N(CC(=O)N[C@@H](CS)C(=O)O)C1=O (stereo partly drawn) [compound 44, N-[[3-[(2-Amino-3-mercapto-1-oxopropyl)methylamino]-2,3-dihydro-2-oxo-5phenyl-1H-1,4-benzodiazepin-1-yl]acetyl]-L-cysteine]	3 µM	0.0045 µM	–	–
CSCC[C@H](NC(=O)CN1C(=O)C(N(C)C(=O)[C@@H](N)CO)N=C(c2ccccc2)c2ccccc21)C(=O)O (stereo partly drawn) [compound 45, N-[[3-[(2-amino-3-hydroxy-1-oxopropyl)methylamino]-2,3-dihydro-2-oxo-5-phenyl-1H-1,4-benzodiazepin-1-yl]acetyl]-L-methionine]	> 10 µM	> 10 µM	–	–
CSCC[C@H](NC(=O)CN1C(=O)C(N(C)C(=O)[C@@H](N)CS)N=C(c2ccccc2)c2ccccc21)c1nnn[nH]1 (stereo partly drawn) [compound 47, N-[[3-[(2-amino-3-mercapto-1-oxopropyl)methylamino]-2,3-dihydro-2-oxo-5-phenyl-1H-1,4-benzodiazepin-1-yl]acetyl]-L-methionine tetrazole]	–	–	0.044 µM	0.0046 µM
CSCC[C@H](NC(=O)CCN1C(=O)C(N(C)C(=O)[C@@H](N)CS)N=C(c2ccccc2)c2ccccc21)C(=O)O (stereo partly drawn) [compound 48]	2.5 µM	0.004 µM	–	–
CSCC[C@](C)(NC(=O)CN1C(=O)C(N(C)C(=O)[C@@H](N)CS)N=C(c2ccccc2)c2ccccc21)C(=O)O (stereo partly drawn) [compound 49, N-[[3-[(2-amino-3-mercapto-1-oxopropyl)methylamino]-2,3-dihydro-2-oxo-5-phenyl-1H-1,4-benzodiazepin-1-yl]acetyl]-(α-methyl)-methionine]	0.74 µM	0.006 µM	–	–
CC(C)[C@H](NC(=O)CN1C(=O)C(N(C)C(=O)[C@@H](N)CS)N=C(c2ccccc2)c2ccccc21)C(=O)O (stereo partly drawn) [compound 50, N-[[3-[(2-amino-3-mercapto-1-oxopropyl)methylamino]-2,3-dihydro-2-oxo-5-phenyl-1H-1,4benzodiazepin-1-yl]acetyl]-L-valine]	> 3 µM	0.0008 µM	–	–
